# Patent US20040161781A1, “Compositions and methods for identifying thymidylate synthase modulators” (priority 2002, published 2004)
# Like-named read-outs stand apart in the source and are kept apart here.
# Tests used:
# [1] = test system: thymidylate synthase (TS); experiment: Down-regulation of TS in H630 cells treated with acyl-homoserine lactones (Western blotting); type: cell-based, human; conditions: overnight (approximately 16 hours)
# Excerpt: FIG. 6. A representation of the ability of acyl homoserine lactones to down-regulate TS in H630 cells.
# The signaling molecules produced by the rTS signaling pathway cause a decrease in the amount of TS found in cells. These signaling molecules can simulate the effects of the compound 3-oxo-hexanoyl homoserine lactone in activating the receptor for this compound when it is present in a recombinant bacteria. […] This hypothesis was validated by the results of an experiment portrayed in FIG. 6. Accordingly, the down-regulation of TS in H630 (human colon cancer) cells treated with acyl-homoserine lactones was tested. Cells growing in RPMI 1640 culture medium, supplemented with 10% dialyzed fetal bovine serum at 37° C. in an atmosphere of 95:5 air:CO2. The compounds with the structures shown were added to the cells and allowed to incubate overnight (approximately 16 hours). The cells were extracted and TS measured by Western blotting as described. The compounds from top to bottom are: (1) 3-hydroxy butanoyl homoserine lactone, (2) butanoyl homoserine lactone; (3) 3-oxo-hexanoyl homoserine lactone; (4) d, 1-hexanoyl homoserine lactone, and (5) 1-homoserine lactone. Tubulin is shown as a loading standard.
# [2] = test system: thymidylate synthase (TS); experiment: Luciferase assay in H630 cells transiently transfected with pG3E1-2TBE; type: cell-based, human; conditions: 5-FU 10 μM for 24 hr; H630 cells transfected with pG3E1-2TBE
# Protocol: FIGS. 2a-2c. Activity of the EGR-I promoter and TBEs in pGL3-basic plasmid. FIG. 2a—the EGR-I promoter was added upstream of the luciferase reporter gene of pGL3-basic plasmid as described in Example 1. The resultant construct pG3E1 was transfected into H630 cells and the luciferase assay was performed 24 hr later. Control: mock transfection; pG3E1: 5 μg of pG3E1 plasmid DNA per 2×10^6 cells was used for transfection. RLU: relative light units. In FIGS. 2b and 2c, TS-binding elements were synthesized and added into pG3E1. The pG3E1-2TBE (5 μg) was transfected into six replicate aliquots of H630 cells (2×10^6) and plated separately. After 24 hr, three of transfected samples were treated with 5-FU (10 μM) for an additional 24 hr (FIG. 2c), the cells were then processed for the luciferase assay according to the manufacturer's instructions. Control: mock transfection; pG3E1: transfected with pG3E1; pG3E1+T: transfected with pG3E1-2TBE only (FIG. 2b). P+T+FU: transfected with pG3E1-2TBE and 24 hr following transfection treated with 5-FU (FIG. 2c). Data are the average of triplicate experiments±S.D.
# This example describes the transient transfection of cells with the construct of the present invention. […]
# [3] = test system: thymidylate synthase (TS); experiment: Luciferase assay in stably transfected H630-C6 cells (pG3E1-2TBE-Neo); type: cell-based, human
# Protocol: FIGS. 3a-3j. RLU production in H630-C6 cells in response to TS inhibitors. H630-C6 cells were evaluated for luciferase activity in response to treatment with the indicated compounds. The cells were exposed to the compounds at the indicated concentrations for 18 hr and luciferase assays were then performed according to the manufacturer's instructions. The mean values of triplicates or quadruplicates are shown along with the standard derivations.
# This example describes the stable transfection of cells with the DNA construct of the present invention. To facilitate selection of stable transformants, we added a neomycin-resistance gene to the pG3E1-2TBE (FIG. 1) to generate a new plasmid termed pG3E1-2TBE-Neo as follows. For stable transfection, pG3E1-2TBE-Neo was linearized at the ampicillin resistance gene with Ase I and was introduced into H630 cells as described above. At 24 hrs post-transfection, the cells were exposed to 400 μg/ml of G418 for two weeks. Individual clones were picked at that time and screened for their ability to induce luciferase in response to treatment with 5-FU, a known TS inhibitor. Following selection with G418 and evaluation for changes in luciferase activity after exposure of the cells to 5-FU, the cloned subline H630/pG3E1-2TBE-Neo-L1-2-C6 (H630-C6) was chosen for further study.
# The stably transfected H630-C6 cell line was maintained in RPMI 1640 plus 10% dialyzed FBS and 400 μg/ml of geneticin (G418). For luciferase assays, 2×10^4 cells were seeded in each well of a 24-well plate in RPMI 1640 medium plus 10% FBS without G418 and were allowed to attach at least six hr, followed by drug exposure overnight (approximately 18 hr). The cells were then washed with PBS (137 mM NaCl, 2.7 mM KCl, 4.3 mM Na2HPO4, 1.4 mM KH2PO4, pH 7.4), lysed with Passive Lysis Buffer (Promega, Madison) and assayed for luciferase activity using the Luciferase Assay System (Promega, Madison, Wis.) according to the manufacturer's instructions. Relative light units (RLU) were measured with a Lumat LB 9501 luminometer (EG & G Berthold, Wildbad, Germany).
# To test H630-C6 as a tool to identify TS modulators three different classes of compounds, i.e., specific or predominantly specific TS inhibitors, agents that inhibit folate pathways or inhibit TS as well as having other targets, and agents that act through TS unrelated sites of action were evaluated for their ability to induce changes in luciferase activity.
# [4] = test system: thymidylate synthase (TS); experiment: Evaluation of TS expression by Western blotting in H630-C6 cells; type: cell-based, human; conditions: H630-C6 cells, 18 hr treatment
# Protocol: FIGS. 4a and 4b. Evaluation of TS expression by Western blotting. […] The cells were harvested for Western blots.
# This example describes the relationship between TS levels and luciferase production by various known TS inhibitors. Western blotting was performed as previously described (Dolnick and Black, 1996). Briefly, H630-C6 cells were washed with PBS and extracted with RIPA buffer. 10 μg of total protein was resolved by electrophoresis in a 10% SDS-PAGE and was blotted onto a PVDF membrane (Immobilon-P, Millipore, Bedford, Mass.). The membrane was hybridized with rabbit polyclonal antibody against TS (a gift from Dr. Edward Chu, VA Cancer Center, Yale University, West Haven, Conn.) diluted in SuperBlock Blocking Buffer (Pierce, Rockford, Ill.) plus 0.25% Tween 20 for one hour and hybridized with HRP-linked anti-rabbit secondary antibody (Jackson Laboratories) for an additional one hour. The membrane was detected with SuperSignal West Dura Extended Duration Substrate (Pierce, Rockford, Ill.) and was visualized by exposing the blot to Kodak XAR-5 film. […] The resulting signal was detected as described above.
# The induction of luciferase activity depends upon the ability to reduce the amount of endogenous TS bound to the TBEs in the recombinant luciferase transcripts. Dissociation of TS from the luciferase reporter mRNA is expected to be accompanied by the removal of TS from TBEs located in other mRNAs as well, such as endogenous TS mRNA. Therefore, an increase in TS is expected to accompany the increase in luciferase. To verify whether a translational mechanism is involved we evaluated the levels of TS from cells treated with the compounds described above by Western blotting.
# [5] = test system: thymidylate synthase (TS); experiment: Multiwell luciferase assay in RKO colon tumor cell lines containing pG3E1-2TBE-Neo; conditions: for % C (effect relative to control without 5-FU), RKO clone 1 / % C (effect relative to control without 5-FU), RKO clone 4 / % C (effect relative to control without 5-FU), RKO clone 7 / RLU RKO clone 1 / RLU RKO clone 4 / RLU RKO clone 7: approximately 18 hr
smiles,measurement,setting,value
"CCCCCC(=O)NC1CCOC1=O (single isomer, unassigned) [d-enantiomer]","activity of the enantiomers, concluded from the comparison with the racemic mixture",[1],inactive
CCCCCC(=O)N[C@H]1CCOC1=O [1-hexanoyl compound],"activity in down-regulating TS relative to the racemic mixture (d, 1)",[1],twice as active
same,"activity of the enantiomers, concluded from the comparison with the racemic mixture",[1],active
"O=c1[nH]cc(F)c(=O)[nH]1 [5-FU, 5-Fluorouracil]",increase in the RLU compared with untreated transfectants,[2],33±13.8%
same,concentration at which the increase in RLU output plateaued,"[3]; H630-C6 cells, 18 hr exposure",50 µM
same,mobility of TS in SDS-PAGE / Western blot,[4],altered the mobility of TS
same,lowest concentration at which changes in RLU can be detected,"[5]; RKO clones, Table 1",0.1 µM
same,"% C (effect relative to control without 5-FU), RKO clone 1",[5]; [5-FU] 0.1 μM,117%
same,"% C (effect relative to control without 5-FU), RKO clone 4",[5]; [5-FU] 0.1 μM,121%
same,"% C (effect relative to control without 5-FU), RKO clone 7",[5]; [5-FU] 0.1 μM,120%
same,RLU RKO clone 1,[5]; [5-FU] 0.1 μM,1137 RLU
same,RLU RKO clone 4,[5]; [5-FU] 0.1 μM,1078 RLU
same,RLU RKO clone 7,[5]; [5-FU] 0.1 μM,799 RLU
same,"% C (effect relative to control without 5-FU), RKO clone 1",[5]; [5-FU] 0.5 μM,135%
same,"% C (effect relative to control without 5-FU), RKO clone 4",[5]; [5-FU] 0.5 μM,112%
same,"% C (effect relative to control without 5-FU), RKO clone 7",[5]; [5-FU] 0.5 μM,157%
same,RLU RKO clone 1,[5]; [5-FU] 0.5 μM,1314 RLU
same,RLU RKO clone 4,[5]; [5-FU] 0.5 μM,999 RLU
same,RLU RKO clone 7,[5]; [5-FU] 0.5 μM,1043 RLU
same,"% C (effect relative to control without 5-FU), RKO clone 1",[5]; [5-FU] 2.0 μM,140%
same,"% C (effect relative to control without 5-FU), RKO clone 4",[5]; [5-FU] 2.0 μM,137%
same,"% C (effect relative to control without 5-FU), RKO clone 7",[5]; [5-FU] 2.0 μM,168%
same,RLU RKO clone 1,[5]; [5-FU] 2.0 μM,1356 RLU
same,RLU RKO clone 4,[5]; [5-FU] 2.0 μM,1214 RLU
same,RLU RKO clone 7,[5]; [5-FU] 2.0 μM,1119 RLU
same,"% C (effect relative to control without 5-FU), RKO clone 1",[5]; [5-FU] 10 μM,179%
same,"% C (effect relative to control without 5-FU), RKO clone 4",[5]; [5-FU] 10 μM,172%
same,"% C (effect relative to control without 5-FU), RKO clone 7",[5]; [5-FU] 10 μM,243%
same,RLU RKO clone 1,[5]; [5-FU] 10 μM,1738 RLU
same,RLU RKO clone 4,[5]; [5-FU] 10 μM,1527 RLU
same,RLU RKO clone 7,[5]; [5-FU] 10 μM,1614 RLU
same,"% C (effect relative to control without 5-FU), RKO clone 1",[5]; [5-FU] 50 μM,148%
same,"% C (effect relative to control without 5-FU), RKO clone 4",[5]; [5-FU] 50 μM,175%
same,"% C (effect relative to control without 5-FU), RKO clone 7",[5]; [5-FU] 50 μM,156%
same,RLU RKO clone 1,[5]; [5-FU] 50 μM,1438 RLU
same,RLU RKO clone 4,[5]; [5-FU] 50 μM,1559 RLU
same,RLU RKO clone 7,[5]; [5-FU] 50 μM,1560 RLU
"Nc1ncn([C@@H]2O[C@H](CO)[C@@H](O)[C@H]2O)c(=O)n1 [AC, 5-azacytidine]","change in luciferase activity (RLU), in words","[3]; H630-C6 cells, 18 hr exposure",no increase
same,TS protein level by Western blotting,[4],did not alter TS protein levels
"O=c1[nH]c(=O)n([C@H]2C[C@H](O)[C@@H](CO)O2)cc1F [FUdR, 5-fluoro-2′-deoxyuridine]",concentration at which the increase in RLU output plateaued,"[3]; H630-C6 cells, 18 hr exposure",0.005 µM
same,mobility of TS in SDS-PAGE / Western blot,[4],altered the mobility of TS
"O=c1[nH]c(=O)n([C@@H]2O[C@H](CO)[C@@H](O)[C@H]2O)cc1F [FUrd, 5-fluorouridine]",concentration at which the increase in RLU output plateaued,"[3]; H630-C6 cells, 18 hr exposure",2.5 µM
same,mobility of TS in SDS-PAGE / Western blot,[4],altered the mobility of TS
"CN[C@@H]1[C@@H](O)[C@@H](O[C@@H]2[C@@H](O)[C@H](O[C@H]3O[C@H]([C@@H](C)O)[C@@H](O)[C@H](O)[C@H]3N)[C@@H](N)C[C@H]2N)OC[C@]1(C)O [G418, geneticin]",TS protein level by Western blotting,[4],inactive
"CN(Cc1cnc2nc(N)nc(N)c2n1)c1ccc(C(=O)N[C@@H](CCC(=O)O)C(=O)O)cc1 [MTX, methotrexate]","change in luciferase activity (RLU), in words",[3],increases in luciferase that were comparable
same,elevation of luciferase activity,[3],approximately two-fold
same,TS protein level by Western blotting,[4],elevated TS protein levels
"O=c1[nH]c(=O)n([C@H]2C[C@H](O)[C@@H](CO)O2)cc1C(F)(F)F [TFT, trifluorothymidine]",concentration at which the increase in RLU output plateaued,"[3]; H630-C6 cells, 18 hr exposure",0.1 µM
"Nc1nc2c([nH]c(=S)n2[C@@H]2O[C@H](CO)[C@@H](O)[C@H]2O)c(=O)[nH]1 [TG, 8-thioguanosine]","change in luciferase activity (RLU), in words","[3]; H630-C6 cells, 18 hr exposure",no increase
same,TS protein level by Western blotting,[4],did not alter TS protein levels
"Cc1nc2ccc(CN(C)c3ccc(C(=O)N[C@@H](CCC(=O)O)C(=O)O)s3)cc2c(=O)[nH]1 [ZD1694, Raltitrexed]",elevation of luciferase activity,"[3]; 100 μM, H630-C6 cells, 18 hr",approximately two-fold
same,"change in luciferase activity (RLU), in words","[3]; H630-C6 cells, 18 hr exposure",increases in luciferase that were comparable
